Measurements: US20250137032A1, “TWO-COMPONENT SYSTEMS FOR USE IN CELL-FREE GENE EXPRESSION” (priority 2023, published 2025)
Where a name gives a salt, the structure may show the parent alone.

Experiments:
[1] = literature value, cited from earlier work; for Kc (kBT) (6): bending rigidity; for CPP (4): critical packing parameter; for Tm (7): membrane transition temperature, in °C (unit assumed)
NarX-RssA = molecular target: T1, NarX-RssA (Serratia marcescens, UniProt Q8GP19); test: Cell-free iron-sensing NarX chimera, luciferase reporter; assay type: biochemical
T1 construct: All genes were; made in house; host or cells: cell-free expression in situ, myTXTL E. coli extract, with DMPC, POPC or DOPC vesicles

[2] = Dynamic light scattering of 100% POPC vesicles in the presence of ligands (liposome stability); assay type: physicochemical
[3] = tested on: cell-free protein synthesis; test: Cell-free protein synthesis (myTXTL): NarX western blot band intensity and luminescence; assay type: biochemical, E. coli; details: increasing ligand concentration, NarX band intensity / luminescence (FIG. 7, FIG. 14)
Description: Protein expression was performed using the myTxTl system (Arbor Biosceinces). 5 μL reactions were assembled with 10 mM lipid, 0.1 nM plasmid encoding T7 RNA polymerase, 9.9 nM plasmids encoding NarX, NarL, and reporter gene (nano luciferase or GFP) in specified ratios, and various concentration of ligands. Cell-free reactions were allowed to progress at 30° C. for 16 hours. Luciferase luminescence was read using the NanoGlo luciferase system and GFP fluorescence (ex. 480 nm, em. 507 nm) was read using a Molecular Devices Spectra Max i3 plate reader. To calculate fold change, luminescence values in the presence of nitrate were divided by the luminescence values in the absence of nitrate for each replicate.
1 μL of cell-free reaction was diluted to 15 μL in Laemlli buffer and heated at 95° C. for 10 minutes. Samples were then loaded and run on a 12% Mini-PROTEAN TGX Precast Protein Gel (Bio-Rad) at 150 V for 90 minutes. Wet transfer was performed onto a PVDF membrane (Bio-Rad) for 45 min at 100 V. Membranes were then blocked for an hour at room temperature in 5% milk in TBST (pH 7.6:50 mM Tris, 150 mM NaCl, HCl to pH 7.6, 0.1% Tween) and incubated for 1 hour at room temperature or overnight at 4° C. with primary solution (anti-Flag (Sigma F1804) or anti-Myc (ab32), diluted 1:1000 in 5% milk in TBST). Primary antibody solution was decanted, and the membrane was washed three times for 5 minutes in TBST and then incubated in secondary solution at room temperature for 1 hour (HRP-anti-Mouse (CST 7076) diluted 1:3000 in 5% milk in TBST). Membranes were then washed in TBST and incubated with Clarity Western ECL Substrate (Bio-Rad) for 5 min. Blots were imaged using an Azure Biosystems c280 imager and band intensities were quantified with ImageJ.

NarX-VanS Chimera = test: Cell-free vancomycin-sensing NarX chimera, luciferase reporter; assay type: biochemical, Enterococcus faecium
[4] = plasmid concentrations which enabled functional NarX sensing
[5] = reporter plasmid reduced by 90%, DMPC, POPC, DOPC vesicles
[6] = 100% POPC vesicles in the presence of 100 μM ligand
[7] = 100% POPC vesicles in the presence of 1 mM ligand

CCCCCCCC/C=C\CCCCCCCC(=O)O[C@H](COC(=O)CCCCCCCCCCCCCCC)COP(=O)([O-])OCC(O)CO.[Na+] (mixture of isomers) [POPG, 1-palmitoyl-2-oleoyl-sn-glycero-3-phospho-(1′-rac-glycerol) (sodium salt)]
Kc (kBT) (6) [1]: 26.9 kBT
CPP (4) [1]: 0.7
2 Dc (A) (2) [1]: 27.9 A
Area (Å^2) (1) [1]: 66 Å^2
C2:C2 (Å) (6) [1]: 26.88 Å
DHH (Å) (2) [1]: 38.5 Å
F (kcal/mol/Å) (6) [1]: 0.0036 kcal/mol/Å
Ka (dyn/cm) (6) [1]: 180 dyn/cm
Kc^PBM (6) [1]: 5.67
Kg (10^−20 J) (6) [1]: −2.76 10^−20 J
Kg/Kc (6) [1]: −0.24
Kg^M (10^−20 J) (6) [1]: −1.43 10^−20 J
Kg^M/Kc^M (6) [1]: −0.25
Ktw (10^−20 J) (6) [1]: 1.05 10^−20 J
Kθ (10^−20 J/nm^2) (6) [1]: 6.15 10^−20 J/nm^2
Lipid Volume (A^3) (3) [1]: 1226.6 A^3
P-C (Å) Head group thickness (6) [1]: 10.61 Å
P:P (Å) (6) [1]: 37.49 Å
δ (Å) (6) [1]: 9.57 Å
Tm (7) [1]: −2

[Cl][Fe]([Cl])[Cl] [Iron, iron (III) chloride anhydrous]
sensor response to ligand (gene expression) (NarX-RssA; [4]): no gene expression was observed
sensor response to ligand (luciferase expression) (NarX-RssA; [5]): functional sensors
Diameter (nm) [2, 6]: 118.62 nm
P.D.I. [2, 6]: 0.135

CCCCCCCC/C=C\CCCCCCCC(=O)O[C@H](COC(=O)CCCCCCCCCCCCCCC)COP(=O)(O)OCCN [POPE, 1-palmitoyl-2-oleoyl-sn-glycero-3-phosphoethanolamine]
Kc (kBT) (6) [1]: 31.2 kBT
CPP (4) [1]: 1.08
2 Dc (A) (2) [1]: 32.6 A
# of lipid contacts (5) [1]: 1.5
Area (Å^2) (1) [1]: 56.6 Å^2
C2:C2 (Å) (6) [1]: 30.67 Å
DHH (Å) (2) [1]: 43.4 Å
F (kcal/mol/Å) (6) [1]: 0.2041 kcal/mol/Å
Ka (dyn/cm) (6) [1]: 260 dyn/cm
Kc^PBM (6) [1]: 10.78
Kg (10^−20 J) (6) [1]: 5.85 10^−20 J
Kg/Kc (6) [1]: 0.44
Kg^M (10^−20 J) (6) [1]: 0.06 10^−20 J
Kg^M/Kc^M (6) [1]: 0.01
Ktw (10^−20 J) (6) [1]: 2.36 10^−20 J
Kθ (10^−20 J/nm^2) (6) [1]: 8.04 10^−20 J/nm^2
Lateral Pressure (pN/nm^2) (3) [1]: 456 pN/nm^2
Lipid Volume (A^3) (3) [1]: 1176.8 A^3
P-C (Å) Head group thickness (6) [1]: 10.88 Å
P:P (Å) (6) [1]: 41.55 Å
Ro (Å) (6) [1]: −2220 Å
γ chain (6) [1]: 0.188
δ (Å) (6) [1]: 10.12 Å
Tm (7) [1]: 25

CCCCCCCC/C=C\CCCCCCCC(=O)OC[C@H](COP(=O)([O-])OCC[N+](C)(C)C)OC(=O)CCCCCCC/C=C\CCCCCCCC [DOPC, 1,2-dioleoyl-sn-glycero-3-phosphocholine]
Kc (kBT) (6) [1]: 28.8 kBT
CPP (4) [1]: 1.09
2 Dc (A) (2) [1]: 28.8 A
Area (Å^2) (1) [1]: 67.4 Å^2
C2:C2 (Å) (6) [1]: 27.37 Å
DHH (Å) (2) [1]: 36.7 Å
F (kcal/mol/Å) (6) [1]: 0.061 kcal/mol/Å
Ka (dyn/cm) (6) [1]: 290 dyn/cm
Kc^PBM (6) [1]: 9.71
Kg (10^−20 J) (6) [1]: −0.08 10^−20 J
Kg/Kc (6) [1]: −0.01
Kg^M (10^−20 J) (6) [1]: −0.84 10^−20 J
Kg^M/Kc^M (6) [1]: −0.14
Ktw (10^−20 J) (6) [1]: 0.99 10^−20 J
Kθ (10^−20 J/nm^2) (6) [1]: 6.4 10^−20 J/nm^2
Lateral Pressure (pN/nm^2) (3) [1]: 480 pN/nm^2
Lipid Volume (A^3) (3) [1]: 1304.5 A^3
P-C (Å) Head group thickness (6) [1]: 10.98 Å
P:P (Å) (6) [1]: 38.35 Å
γ chain (6) [1]: 0.18(5) ·
δ (Å) (6) [1]: 9.41 Å
Tm (7) [1]: −17

O.O.O.O.O.O=S(=O)([O-])[O-].[Cu+2] [copper, copper (II) sulfate pentahydrate]
effect on cell-free protein expression [3]: inhibited cell-free protein expression
effect on cell-free protein expression ([3]; listed as Copper): inhibits cell-free protein synthesis

CCCCCCCC/C=C\CCCCCCCC(=O)OC(COC(=O)CCCCCCCCCCCCCCC)COP(=O)([O-])OCC[N+](C)(C)C (stereo not drawn) [POPC, 1-palmitoyl-2-oleoyl-glycero-3-phosphocholine]
Kc (kBT) (6) [1]: 31.7 kBT
CPP (4) [1]: 0.61
2 Dc (A) (2) [1]: 28.8 A
# of lipid contacts (5) [1]: 2.75
Area (Å^2) (1) [1]: 64.3 Å^2
C2:C2 (Å) (6) [1]: 27.52 Å
DHH (Å) (2) [1]: 37 Å
F (kcal/mol/Å) (6) [1]: 0.0303 kcal/mol/Å
Ka (dyn/cm) (6) [1]: 280 dyn/cm
Kc^PBM (6) [1]: 9.5
Kg (10^−20 J) (6) [1]: −1.38 10^−20 J
Kg/Kc (6) [1]: −0.1
Kg^M (10^−20 J) (6) [1]: −1.09 10^−20 J
Kg^M/Kc^M (6) [1]: −0.17
Ktw (10^−20 J) (6) [1]: 1.45 10^−20 J
Kθ (10^−20 J/nm^2) (6) [1]: 5.52 10^−20 J/nm^2
Lateral Pressure (pN/nm^2) (3) [1]: 517 pN/nm^2
Lipid Volume (A^3) (3) [1]: 1231.2 A^3
P-C (Å) Head group thickness (6) [1]: 11.02 Å
P:P (Å) (6) [1]: 38.54 Å
Ro (Å) (6) [1]: −315 Å
γ chain (6) [1]: 0.198
δ (Å) (6) [1]: 9.64 Å
Tm (7) [1]: −9

CCCCCCCCCCCCCC(=O)OC[C@H](COP(=O)([O-])OCC[N+](C)(C)C)OC(=O)CCCCCCCCCCCCC [DMPC, 1,2-dimyristoyl-sn-glycero-3-phosphocholine]
Kc (kBT) (6) [1]: 29.3 kBT
CPP (4) [1]: 1
2 Dc (A) (2) [1]: 25.4 A
Area (Å^2) (1) [1]: 60.6 Å^2
C2:C2 (Å) (6) [1]: 24.54 Å
DHH (Å) (2) [1]: 35.3 Å
F (kcal/mol/Å) (6) [1]: −0.0225 kcal/mol/Å
Ka (dyn/cm) (6) [1]: 210 dyn/cm
Kc^PBM (6) [1]: 5.75
Kg (10^−20 J) (6) [1]: −3.23 10^−20 J
Kg/Kc (6) [1]: −0.26
Kg^M (10^−20 J) (6) [1]: −1.32 10^−20 J
Kg^M/Kc^M (6) [1]: −0.22
Ktw (10^−20 J) (6) [1]: 2.18 10^−20 J
Kθ (10^−20 J/nm^2) (6) [1]: 4.02 10^−20 J/nm^2
Lateral Pressure (pN/nm^2) (3) [1]: 442 pN/nm^2
Lipid Volume (A^3) (3) [1]: 1100 A^3
P-C (Å) Head group thickness (6) [1]: 11.11 Å
P:P (Å) (6) [1]: 35.65 Å
Ro (Å) (6) [1]: −47 Å
γ chain (6) [1]: 0.247
δ (Å) (6) [1]: 9.48 Å
Tm (7) [1]: 24

CN[C@H](CC(C)C)C(=O)N[C@H]1C(=O)N[C@@H](CC(N)=O)C(=O)N[C@H]2C(=O)N[C@H]3C(=O)N[C@H](C(=O)N[C@H](C(=O)O)c4cc(O)cc(O)c4-c4cc3ccc4O)[C@H](O)c3ccc(c(Cl)c3)Oc3cc2cc(c3O[C@@H]2O[C@H](CO)[C@@H](O)[C@H](O)[C@H]2O[C@H]2C[C@](C)(N)[C@H](O)[C@H](C)O2)Oc2ccc(cc2Cl)[C@H]1O [Vancomycin, vancomycin hydrochloride]
sensor response to ligand (gene expression) (NarX-VanS Chimera; [4]): no gene expression was observed
sensor response to ligand (luciferase expression) (NarX-VanS Chimera; [5]): did not induce an increase in luciferase expression
Diameter (nm) [2, 7]: 124.88 nm
P.D.I. [2, 7]: 0.189
